# In ChEMBL document CHEMBL3885861, “Open TG-GATES”:
# Organism: Rattus norvegicus
# Assay: Open TG-GATES - Regimen: Single
# Type: toxicity, organism-based, Sprague-Dawley
# Design: regimen Single, gender Male, age 6 weeks
# Details: in vivo, ip, 0 mg/kg, route intraperitoneal injection, dose level Control; for APTT / Bas / Eos / Fbg / Hb / Ht / Lym / MCH / MCHC / MCV / Mono / Neu / PT / Plat / RBC / Ret / WBC: tissue Blood; for KIDNEY_L / KIDNEY_R / KIDNEY_TOTAL: tissue Kidney; for LIVER: tissue Liver; for A/G / ALP / ALT / AST / BUN / CRE / Ca / Cl / DBIL / GLC / IP / K / LDH / Na / PL / RALB / TBIL / TC / TG / TP / gamma-GTP: tissue Plasma
compound,measurement,setting,value
CC(C)=CC(=O)C=C(C)C [PHORONE],TERMINAL_BW,3 h,224.3 g
same,APTT,3 h,17.2 s
same,Bas,3 h,0%
same,Eos,3 h,1%
same,Fbg,3 h,227.4 mg/dL
same,Hb,3 h,13.5 g/dL
same,Ht,3 h,40.2%
same,Lym,3 h,71%
same,MCH,3 h,22.1 pg
same,MCHC,3 h,33.5%
same,MCV,3 h,65.9 fL
same,Mono,3 h,8.2%
same,Neu,3 h,19.8%
same,PT,3 h,12.2 s
same,Plat,3 h,114.4 x10_4/uL
same,RBC,3 h,609.2 x10_4/ul
same,Ret,3 h,9.2%
same,WBC,3 h,97 x10_2/uL
same,KIDNEY_L,3 h,1 g
same,KIDNEY_R,3 h,1 g
same,KIDNEY_TOTAL,3 h,2 g
same,LIVER,3 h,10.7 g
same,A/G,3 h,1.9
same,ALP,3 h,863.8 IU/L
same,ALT,3 h,35.2 IU/L
same,AST,3 h,73.4 IU/L
same,BUN,3 h,13.6 mg/dL
same,CRE,3 h,0.5 mg/dL
same,Ca,3 h,11.1 mg/dL
same,Cl,3 h,106.2 meq/L
same,DBIL,3 h,0.02 mg/dL
same,GLC,3 h,195 mg/dL
same,IP,3 h,9.9 mg/dL
same,K,3 h,5.1 meq/L
same,LDH,3 h,86 IU/L
same,Na,3 h,139.6 meq/L
same,PL,3 h,142.8 mg/dL
same,RALB,3 h,3.6 g/dL
same,TBIL,3 h,0.4 mg/dL
same,TC,3 h,75.8 mg/dL
same,TG,3 h,99 mg/dL
same,TP,3 h,5.6 g/dL
same,gamma-GTP,3 h,1.4 IU/L
same,TERMINAL_BW,6 h,219.5 g
same,APTT,6 h,17.4 s
same,Bas,6 h,0%
same,Eos,6 h,0.6%
same,Fbg,6 h,223.8 mg/dL
same,Hb,6 h,13.2 g/dL
same,Ht,6 h,39.7%
same,Lym,6 h,74.6%
same,MCH,6 h,21.2 pg
same,MCHC,6 h,33.2%
same,MCV,6 h,63.9 fL
same,Mono,6 h,4.4%
same,Neu,6 h,20.4%
same,PT,6 h,12.3 s
same,Plat,6 h,118.6 x10_4/uL
same,RBC,6 h,620.2 x10_4/ul
same,Ret,6 h,9.1%
same,WBC,6 h,102.1 x10_2/uL
same,KIDNEY_L,6 h,0.9 g
same,KIDNEY_R,6 h,0.9 g
same,KIDNEY_TOTAL,6 h,1.9 g
same,LIVER,6 h,9.7 g
same,A/G,6 h,2
same,ALP,6 h,700.4 IU/L
same,ALT,6 h,34.8 IU/L
same,AST,6 h,72.8 IU/L
same,BUN,6 h,12.6 mg/dL
same,CRE,6 h,0.5 mg/dL
same,Ca,6 h,10.6 mg/dL
same,Cl,6 h,105.2 meq/L
same,DBIL,6 h,0.024 mg/dL
same,GLC,6 h,210.4 mg/dL
same,IP,6 h,10.2 mg/dL
same,K,6 h,4.7 meq/L
same,LDH,6 h,65 IU/L
same,Na,6 h,139 meq/L
same,PL,6 h,137 mg/dL
same,RALB,6 h,3.5 g/dL
same,TBIL,6 h,0.4 mg/dL
same,TC,6 h,77.8 mg/dL
same,TG,6 h,50 mg/dL
same,TP,6 h,5.2 g/dL
same,gamma-GTP,6 h,1.2 IU/L
same,TERMINAL_BW,9 h,217.4 g
same,APTT,9 h,17.2 s
same,Bas,9 h,0%
same,Eos,9 h,0.8%
same,Fbg,9 h,246.8 mg/dL
same,Hb,9 h,13.1 g/dL
same,Ht,9 h,39.7%
same,Lym,9 h,70%
same,MCH,9 h,21.7 pg
same,MCHC,9 h,33.1%
same,MCV,9 h,65.5 fL
same,Mono,9 h,4.6%
same,Neu,9 h,25.2%
same,PT,9 h,11.9 s
same,Plat,9 h,112.4 x10_4/uL
same,RBC,9 h,606.8 x10_4/ul
same,Ret,9 h,9.2%
same,WBC,9 h,108.4 x10_2/uL
same,KIDNEY_L,9 h,0.9 g
same,KIDNEY_R,9 h,1 g
same,KIDNEY_TOTAL,9 h,1.9 g
same,LIVER,9 h,9 g
same,A/G,9 h,2.1
same,ALP,9 h,720.6 IU/L
same,ALT,9 h,29.8 IU/L
same,AST,9 h,60.6 IU/L
same,BUN,9 h,11.4 mg/dL
same,CRE,9 h,0.5 mg/dL
same,Ca,9 h,10.7 mg/dL
same,Cl,9 h,105.8 meq/L
same,DBIL,9 h,0.066 mg/dL
same,GLC,9 h,200.6 mg/dL
same,IP,9 h,10.6 mg/dL
same,K,9 h,4.5 meq/L
same,LDH,9 h,74.8 IU/L
same,Na,9 h,138.8 meq/L
same,PL,9 h,138.6 mg/dL
same,RALB,9 h,3.8 g/dL
same,TBIL,9 h,0.4 mg/dL
same,TC,9 h,79.8 mg/dL
same,TG,9 h,42.8 mg/dL
same,TP,9 h,5.6 g/dL
same,gamma-GTP,9 h,1.4 IU/L
same,TERMINAL_BW,24 h,237.9 g
same,APTT,24 h,17.4 s
same,Bas,24 h,0%
same,Eos,24 h,1%
same,Fbg,24 h,276.4 mg/dL
same,Hb,24 h,12.9 g/dL
same,Ht,24 h,38.6%
same,Lym,24 h,73.6%
same,MCH,24 h,21.5 pg
same,MCHC,24 h,33.3%
same,MCV,24 h,64.8 fL
same,Mono,24 h,4.6%
same,Neu,24 h,20.6%
same,PT,24 h,11.7 s
same,Plat,24 h,118.3 x10_4/uL
same,RBC,24 h,596.2 x10_4/ul
same,Ret,24 h,8.4%
same,WBC,24 h,101.3 x10_2/uL
same,KIDNEY_L,24 h,1 g
same,KIDNEY_R,24 h,1.1 g
same,KIDNEY_TOTAL,24 h,2.1 g
same,LIVER,24 h,11.7 g
same,A/G,24 h,1.9
same,ALP,24 h,856.2 IU/L
same,ALT,24 h,28.8 IU/L
same,AST,24 h,55.6 IU/L
same,BUN,24 h,16.4 mg/dL
same,CRE,24 h,0.5 mg/dL
same,Ca,24 h,10.9 mg/dL
same,Cl,24 h,103.2 meq/L
same,DBIL,24 h,0.026 mg/dL
same,GLC,24 h,195.4 mg/dL
same,IP,24 h,8.7 mg/dL
same,K,24 h,4.9 meq/L
same,LDH,24 h,66.2 IU/L
same,Na,24 h,138.4 meq/L
same,PL,24 h,140.6 mg/dL
same,RALB,24 h,3.6 g/dL
same,TBIL,24 h,0.4 mg/dL
same,TC,24 h,78.4 mg/dL
same,TG,24 h,80.8 mg/dL
same,TP,24 h,5.6 g/dL
same,gamma-GTP,24 h,1.6 IU/L
